Source: patent US5932742A, “Arylsulfonylimidazolone derivatives as an antitumor agent” (priority 1996, dated 1999)
Converted amounts (≈) assume the structure as drawn. Counter-ions that a name gives are not always drawn. Like-named read-outs stand apart in the source and are kept apart here.

What was measured:
Assay type in all cases: cell-based
[1] = tested on: A549 (ATCC CCL 185): human lung carcinoma; assay: In vitro antitumor activity, MTT assay, A549; settings: for IC50: Homo sapiens, A549, 48 h; for IC50 (A549): Table 1, 48 hrs
Protocol: (§1) In vitro antitumor activity against human tumor cell lines
(§2) In vitro antitumor activity of the compounds according to the present invention was determined by MTT assay method against the following human tumor cell lines:
A549 (ATCC CCL 185): human lung carcinoma
(§3) In this test, the known antineoplastic compounds, Doxorubicin and Sulofenur, were used as the comparative agents.
(§4) Each of the tumor cells was cultured in RPMI 1640 media containing 10% fetal bovine serum, 100 IU/ml penicillin and 100 μg/ml streptomycin, and then periodically subcultured once or twice per week in trypsin-EDTA solution containing 0.05% trypsin and 0.53mM EDTA.4Na. The human tumor cell line thus obtained (10,000cells/100 μl) was plated on 96-well microplate and then cultured for 24 hrs at 37° C. in a 5% CO2 incubator. Test compound was dissolved in DMSO, sterilized with 0.22 μm PVDF filter, and then serially 5-fold diluted from 40 μg/ml to 0.00256μg/ml. 100 μl of the sample solution thus prepared and RPMI 1640 medium only (control group) were added to 96-well microplate containing the human tumor cell, respectively. The final concentration of the test compound was in the range from 20 μg/ml to 0.00128 μg/ml and the concentration of DMSO was below 0.5%. The cells were cultured for 48 hrs at 37° C. in a 5% CO2 incubator. MTT(3-(4,5-Dimethylthiazole-2-yl)-e,5-diphenyltetrazoliumbromide) was dissolved in physiological saline in a concentration of 2 mg/ml and the resulting solution was filtered through 0.22 μm PTFE filter. 25 μl of MTT solution thus prepared was added to each well of 96-well microplate and incubated for additional 4 hrs at 37° C. in a 5% CO2 incubator. Then, the content of microplate was centrifuged at 1000 rpm for 10 min, and supernatant was removed by flicking. The formazan formed from MTT by mitochondrial succinate dehydrogenase was dissolved in 100 μl of DMSO. The absorbance of each well was measured at 540nm by micro ELISA reader and the cytotoxicity was calculated by dividing the absorbance of test group by the absorbance of control group. After the calculated cytotoxicity (%) was plotted, the concentration of 50% tumor growth inhibition concentration (IC50) was estimated by Linear-Regression method.

[2] = tested on: KB (ATCC CCL 17): human epidermoid carcinoma; assay: In vitro antitumor activity, MTT assay, KB; settings: MTT, 48 hrs; for IC50: Homo sapiens, read-out: IC50 (KB)
Protocol: as §1, §2
KB (ATCC CCL 17): human epidermoid carcinoma
as §3, §4

[3] = tested on: Colo205 (ATCC CCL 222): human colon adenocarcinoma; assay: In vitro antitumor activity, MTT assay, Colo205; settings: for IC50: Homo sapiens; for IC50 (Colo205): Table 1, 48 hrs
Protocol: as §1, §2
Colo205 (ATCC CCL 222): human colon adenocarcinoma
as §3, §4

[4] = tested on: SK-OV-3 (ATCC HTB 77): human ovarian adenocarcinoma; assay: In vitro antitumor activity, MTT assay, SK-OV-3; settings: for IC50: Homo sapiens; for IC50 (SK-OV-3): Table 1, 48 hrs
Protocol: as §1, §2
SK-OV-3 (ATCC HTB 77): human ovarian adenocarcinoma
as §3, §4

[5] = tested on: K562 (ATCC CCL 243): human chronic myelogenous leukemia; assay: In vitro antitumor activity, MTT assay, K562; settings: Homo sapiens, K562, 48 h
Protocol: as §1, §2
K562 (ATCC CCL 243): human chronic myelogenous leukemia
as §3, §4

[6] = COLO 205, Table 1, 48 hrs, read-out: IC50 (Colo205)
[7] = COLO 205, Table 2, 48 hrs, read-out: IC50 (Colo205)
[8] = COLO 205, Table 5, 48 hrs, read-out: IC50 (Colo205)

| Structure (SMILES) | IC50 ([1]; Table 1) [µg/mL] | IC50 ([2]; Table 1) [µg/mL] | IC50 [3, 6] [µg/mL] | IC50 ([4]; SK-OV-3, Table 1, 48 hrs) [µg/mL] | other results |
| --- | --- | --- | --- | --- | --- |
| CCOC(=O)N1CCc2cc(S(=O)(=O)n3cc(-c4ccccc4)[nH]c3=O)ccc21 [Example 1, 4-phenyl-1-(N-ethoxycarbonylindoline-5-sulfonyl)-2-imidazolone] | 0.374 (≈ 0.905 µM) | 0.017 (≈ 0.0411 µM) | 0.906 (≈ 2.19 µM) | 10.1 (≈ 24.3 µM) | – |
| CCNC(=O)N1CCc2cc(S(=O)(=O)n3cc(-c4ccccc4)[nH]c3=O)ccc21 [Example 2, 4-phenyl-1-(N-ethylcarbamoylindoline-5-sulfonyl)-2-imidazolone] | 0.325 (≈ 0.788 µM) | 16.7 (≈ 40.4 µM) | – | 0.537 (≈ 1.3 µM) | – |
| CCNC(=O)N1c2ccc(S(=O)(=O)n3cc(-c4ccccc4)[nH]c3=O)cc2CC1C (stereo not drawn) [Example 3, 4-phenyl-1-(N-ethylcarbamoyl-2-methylindoline-5-sulfonyl)-2-imidazolone] | 0.111 (≈ 0.26 µM) | 0.006 (≈ 0.0141 µM) | 0.265 (≈ 0.621 µM) | 0.509 (≈ 1.19 µM) | – |
| CCCNC(=O)N1c2ccc(S(=O)(=O)n3cc(-c4ccccc4)[nH]c3=O)cc2CC1C (stereo not drawn) [Example 5, 4-phenyl-1-(N-propylcarbamoyl-2-methylindoline-5-sulfonyl)-2-imidazolone] | 0.09 (≈ 0.204 µM) | 0.105 (≈ 0.238 µM) | 0.519 (≈ 1.18 µM) | 0.146 (≈ 0.331 µM) | – |
| CC(C)NC(=O)N1c2ccc(S(=O)(=O)n3cc(-c4ccccc4)[nH]c3=O)cc2CC1C (stereo not drawn) [Example 7, 4-phenyl-1-(N-isopropylcarbamoyl-2-methylindoline-5-sulfonyl)-2-imidazolone] | 0.105 (≈ 0.238 µM) | 0.162 (≈ 0.368 µM) | 0.102 (≈ 0.232 µM) | 1.07 (≈ 2.43 µM) | – |
| CC(C)(C)NC(=O)N1CCc2cc(S(=O)(=O)n3cc(-c4ccccc4)[nH]c3=O)ccc21 [Example 8, 4-phenyl-1-(N-t-butylcarbamoylindoline-5-sulfonyl)-2-imidazolone] | 0.02 (≈ 0.0454 µM) | 0.002 (≈ 0.00454 µM) | 0.549 (≈ 1.25 µM) | 2.67 (≈ 6.07 µM) | – |
| O=C(c1ccc([N+](=O)[O-])cc1)N1CCc2cc(S(=O)(=O)n3cc(-c4ccccc4)[nH]c3=O)ccc21 [Example 9, 4-phenyl-1-[N-(4-nitrobenzoyl)indoline-5-sulfonyl]-2-imidazolone] | 0.528 (≈ 1.08 µM) | 0.045 (≈ 0.0917 µM) | 0.651 (≈ 1.33 µM) | 0.106 (≈ 0.216 µM) | – |
| Nc1ccc(C(=O)N2CCc3cc(S(=O)(=O)n4cc(-c5ccccc5)[nH]c4=O)ccc32)cc1 [Example 10, 4-phenyl-1-[N-(4-aminobenzoyl)indoline-5-sulfonyl]-2-imidazolone.HCl] | 0.23 | 0.0001 | 0.334 | 0.529 | – |
| CC1Cc2cc(S(=O)(=O)n3cc(-c4ccccc4)[nH]c3=O)ccc2N1C(=O)c1ccc([N+](=O)[O-])cc1 (stereo not drawn) [Example 11, 4-phenyl-1-[N-(4-nitrobenzoyl)-2-methylindoline-5-sulfonyl]-2-imidazolone] | 0.234 (≈ 0.464 µM) | 0.64 (≈ 1.27 µM) | 1.11 (≈ 2.2 µM) | 0.453 (≈ 0.898 µM) | – |
| O=C(c1ccccc1)N1CCc2cc(S(=O)(=O)n3cc(-c4ccccc4)[nH]c3=O)ccc21 [Example 13, 4-phenyl-1-(N-benzoylindoline-5-sulfonyl)-2-imidazolone] | 0.199 (≈ 0.447 µM) | 0.028 (≈ 0.0629 µM) | 0.644 (≈ 1.45 µM) | 1.22 (≈ 2.73 µM) | – |
| CCOc1ccc(C(=O)N2CCc3cc(S(=O)(=O)n4cc(-c5ccccc5)[nH]c4=O)ccc32)cc1 [Example 14, 4-phenyl-1-[N-(4-ethoxybenzoyl)indoline-5-sulfonyl]-2-imidazolone] | 0.445 (≈ 0.909 µM) | 0.107 (≈ 0.219 µM) | 1.28 (≈ 2.62 µM) | 0.926 (≈ 1.89 µM) | – |
| O=C(c1cccnc1)N1CCc2cc(S(=O)(=O)n3cc(-c4ccccc4)[nH]c3=O)ccc21 [Example 15, 4-phenyl-1-(N-nicotinylindoline-5-sulfonyl)-2-imidazolone] | 0.112 (≈ 0.251 µM) | 0.015 (≈ 0.0336 µM) | 0.382 (≈ 0.856 µM) | 0.446 (≈ 0.999 µM) | – |
| O=C(c1ccco1)N1CCc2cc(S(=O)(=O)n3cc(-c4ccccc4)[nH]c3=O)ccc21 [Example 16, 4-phenyl-1-(N-furanoylindoline-5-sulfonyl)-2-imidazolone] | – | – | – | – | IC50 (A549) [1]: 0.065 µg/mL (≈ 0.149 µM); IC50 (KB) ([2]; Table 1): 0.011 µg/mL (≈ 0.0253 µM); IC50 (Colo205) [3]: 0.460 µg/mL (≈ 1.06 µM); IC50 (SK-OV-3) [4]: 2.074 µg/mL (≈ 4.76 µM) |
| O=C(c1cccs1)N1CCc2cc(S(=O)(=O)n3cc(-c4ccccc4)[nH]c3=O)ccc21 [Example 17, 4-phenyl-1-(N-thiophenoylindoline-5-sulfonyl)-2-imidazolone] | – | – | – | – | IC50 (A549) [1]: 0.046 µg/mL (≈ 0.102 µM); IC50 (KB) ([2]; Table 1): 0.008 µg/mL (≈ 0.0177 µM); IC50 (Colo205) [3]: 0.386 µg/mL (≈ 0.855 µM); IC50 (SK-OV-3) [4]: 0.729 µg/mL (≈ 1.61 µM) |
| O=C(c1ccc(Cl)cc1)N1CCc2cc(S(=O)(=O)n3cc(-c4ccccc4)[nH]c3=O)ccc21 [Example 18, 4-phenyl-1-[N-(4-chlorobenzoyl)indoline-5-sulfonyl]-2-imidazolone] | – | – | – | – | IC50 ([1]; Table 2): 0.607 µg/mL (≈ 1.26 µM); IC50 ([2]; Table 2): 0.13 µg/mL (≈ 0.271 µM); IC50 [3, 7]: 2.05 µg/mL (≈ 4.27 µM); IC50 ([4]; SK-OV-3, Table 2, 48 hrs): > 20 µg/mL |
| O=C(CCl)Nc1ccc(C(=O)N2CCc3cc(S(=O)(=O)n4cc(-c5ccccc5)[nH]c4=O)ccc32)cc1 [Example 19, 4-phenyl-1-[N-(4-chloroacetylaminobenzoyl)indoline-5-sulfonyl]-2-imidazolone] | – | – | – | – | IC50 ([1]; Table 2): 0.438 µg/mL (≈ 0.816 µM); IC50 ([2]; Table 2): 0.046 µg/mL (≈ 0.0857 µM); IC50 [3, 7]: 0.58 µg/mL (≈ 1.08 µM); IC50 ([4]; SK-OV-3, Table 2, 48 hrs): 0.202 µg/mL (≈ 0.376 µM) |
| O=C1NC(c2ccccc2)CN1S(=O)(=O)c1ccc2c(c1)CCN2C(=S)Nc1ccc(F)cc1 (stereo not drawn) [Example 46, 4-phenyl-1-[N-(4-fluorophenyl)thiocarbamoylindoline-5-sulfonyl]-4,5-dihydro-2-imidazolone] | – | – | – | – | IC50 ([1]; Table 3): 3.29 µg/mL (≈ 6.63 µM); IC50 ([3]; COLO 205, Table 3, 48 hrs, read-out: IC50 (Col205)): 8.74 µg/mL (≈ 17.6 µM); IC50 ([4]; SK-OV-3, Table 3, 48 hrs): 3.13 µg/mL (≈ 6.3 µM); IC50 ([5]; Table 3, read-out: IC50 (K562)): 3.94 µg/mL (≈ 7.94 µM) |
| C[C@H](N)C(=O)Nc1ccc(C(=O)N2CCc3cc(S(=O)(=O)N4C[C@H](c5ccccc5)NC4=O)ccc32)cc1 [Example 66, (S)-(+)-4-phenyl-1-[N-{4-(2-aminopropanoyl)aminobenzoyl}indoline-5-sulfonyl]-4,5-dihydro-2-imidazolone.HCl] | – | – | – | – | IC50 ([1]; Table 5): 0.112 µg/mL; IC50 [3, 8]: 0.77 µg/mL; IC50 ([4]; SK-OV-3, Table 5, 48 hrs): 0.259 µg/mL; IC50 ([5]; Table 5, read-out: IC50 (K562)): 3.57 µg/mL |
| NCC(=O)Nc1ccc(C(=O)N2CCc3cc(S(=O)(=O)N4C[C@H](c5ccccc5)NC4=O)ccc32)cc1 [Example 67, (S)-(+)-4-phenyl-1-[N-{4-(2-aminoacetyl)aminobenzoyl}indoline-5-sulfonyl]-4,5-dihydro-2-imidazolone.HCl] | – | – | – | – | IC50 ([1]; Table 5): 0.254 µg/mL; IC50 [3, 8]: 0.971 µg/mL; IC50 ([4]; SK-OV-3, Table 5, 48 hrs): 0.855 µg/mL; IC50 ([5]; Table 5, read-out: IC50 (K562)): 1.32 µg/mL |
